Test results published in patent US20110224252A1, “NOVEL IMIDAZOLE DERIVATIVES” (SYNGENTA CROP PROTECTION, INC., priority 2007, published 2011).

Legend:
Type in all cases: in vivo
Septoria tritici = Septoria tritici / wheat / preventive (action against Septoria leaf spot on wheat); details: Zymoseptoria tritici, spray, wheat plants cv. Riband, assessed 16-18 days after inoculation, read-out: inhibits fungal infestation
Method: Septoria tritici/Wheat/Preventive (Action Against Septoria Leaf Spot on Wheat) 2 weeks old wheat plants cv. Riband are treated with the formulated test compound in a spray chamber. One day after application wheat plants are inoculated by spraying a spore suspension (10^6 conidia/ml) on the test plants. After an incubation period of 1 day at 22° C./21° C. and 95% r. h. plants are kept at 22° C./21° C. and 70% r.h. in a greenhouse. The disease incidence is assessed 16-18 days after inoculation.

Uncinula necator = Uncinula necator / grape / preventive (action against powdery mildew on grape); details: Erysiphe necator, 168 h, spray, grape seedlings cv. Gutedel, assessed 7 days after inoculation, read-out: inhibit fungal infestation
Method: Uncinula necator/Grape/Preventive (Action Against Powdery Mildew on Grape) 5 weeks old grape seedlings cv. Gutedel are treated with the formulated test compound in a spray chamber. One day after application grape plants are inoculated by shaking plants infected with grape powdery mildew above the test plants. After an incubation period of 7 days at 24° C./22° C. and 70% r. h. under a light regime of 14/10 h (light/dark) the disease incidence is assessed.

Alternaria solani = Alternaria solani / tomato / preventive (action against Alternaria on tomato); details: 96 h, spray, tomato plants cv. Roter Gnom, assessed 4 days after inoculation, read-out: inhibit fungal infestation
Method: (§1) Alternaria solani/Tomato/Preventive (Action Against Alternaria on Tomato) 4 weeks old tomato plants cv. Roter Gnom are treated with the formulated test compound in a spray chamber. Two days after application tomato plants are inoculated by spraying a spore suspension on the test plants. After an incubation period of 4 days at 22° C./18° C. and 95% r. h. in a greenhouse the disease incidence is assessed.

Botrytis cinerea = Botrytis cinerea / tomato / preventive (action against Botrytis on tomato); details: 72 h, spray, tomato plants cv. Roter Gnom, assessed 3 days after inoculation, read-out: inhibit fungal infestation
Method: as §1, with “Botrytis cinerea/Tomato/Preventive (Action” for “Alternaria solani/Tomato/Preventive (Action”, “Against Botrytis” for “Against Alternaria”, “of 3” for “of 4”, “at 20°” for “at 22° C./18°”

Puccinia recondita = Puccinia recondita / wheat / preventive (action against brown rust on wheat); details: 264 h, spray, wheat plants cv. Arina, assessed 11 days after inoculation, read-out: inhibit fungal infestation
Method: Puccinia recondita/Wheat/Preventive (Action Against Brown Rust on Wheat) 1 week old wheat plants cv. Arina are treated with the formulated test compound in a spray chamber. One day after application wheat plants are inoculated by spraying a spore suspension ([…] uredospores/ml) on the test plants. After an incubation period of 1 day at 20° C. and 95% r. h. plants are kept for 10 days 20° C./18° C. (day/night) and 60% r.h. in a greenhouse. The disease incidence is assessed 11 days after inoculation.

Measured: inhibition at 200 ppm

Clc1cnc(-n2c(Cl)nc(Cl)c2-c2ccc(Br)cc2)c(Cl)c1 [I.s.034, 2-[5-(4-Bromo-phenyl)-2,4-dichloro-imidazol-1-yl]-3,5-dichloro-pyridine]
not listed: Puccinia recondita
≥ 80%: all other assays above

Cc1nc(Cl)n(-c2ncc(Cl)cc2Cl)c1-c1ccc(Br)cc1 [I.s.035, 2-[5-(4-Bromo-phenyl)-2-chloro-4-methyl-imidazol-1-yl]-3,5-dichloro-pyridine]
not listed: Botrytis cinerea
≥ 80%: all other assays above

Cc1nc(Cl)n(-c2ncc(Cl)cc2Cl)c1-c1ccc(Cl)nc1 [I.s.210, 3,5-Dichloro-2-[2-chloro-5-(6-chloro-pyridin-3-yl)-4-methyl-imidazol-1-yl]-pyridine]
≥ 80%: Septoria tritici | Uncinula necator | Alternaria solani
